According to patent US9901646B2, “Methods for induction of antigen-specific immune tolerance” (École Polytechnique Fédérale de Lausanne (EPFL), priority 2010, dated 2018):
Where no end group is shown, it is not given here. 8‑arm PEG = 8-arm polyethylene glycol (PEG) dendrimer, conjugated via pyridyldisulfide groups to cysteine thiols

Experiments:
[1] = target: T1, glycophorin-A (GYPA) (Mus musculus, UniProt P14220); test: Affinity pull-down with biotinylated ERY1 peptide and photoactivatable crosslinker, Western blot; format: binding; settings: whole erythrocytes, UV crosslinking, streptavidin and anti-GYPA Western blot
T1 construct: GYPA is naturally expressed and presented as part of a complex comprised of several membrane and cytoskeletal proteins; endogenous in cells; host or cells: whole mouse erythrocytes
Protocol: Method: The ERY1 (H2N-WMVLPWLPGTLDGGSGCRG-CONH2) (SEQ ID NO:19) and mismatch (H2N-PLLTVGMDLWPWGGSGCRG-CONH2) (SEQ ID NO:20) peptides were synthesized using standard solid-phase f-moc chemistry on TGR resin. The peptide was cleaved from the resin in 95% tri-fluoroacetic acid, 2.5% ethanedithiol, 2.5% water, and precipitated in ice-cold diethyl ether. Purification was conducted on a Waters preparative HPLC-MS using a C18 reverse phase column.
In brief, peptides were solubilized in PBS/DMF and reacted with 1.05 equivalents of Mts-atf-biotin overnight at 4° C. Following clarification of the reaction by centrifugation, biotinylated peptide was incubated with erythrocytes at in PBSA-50 for 1 h at 37° C., cells were washed twice in fresh PBS, and were UV irradiated at 365 nm for 8 min at room temperature. Cells were lysed by sonication and the lysate was purified using streptavidin-coated magnetic beads (Invitrogen). The eluate was run on an SDS-PAGE and transferred to a PVDF membrane, and immunoblotted with streptavidin-HRP (R&D Systems) or anti-mouse GYPA.

[2] = test system: human erythrocytes (type A and B); test: Binding of bacteria displaying peptide to cells, flow cytometry; settings: peptide displayed on bacteria, 1 h at 4° C.
Protocol: Method: To characterize specificity, individual sequenced clones were analyzed using cytometry for binding toward human erythrocytes (type A and B), mouse erythrocytes, HEK293T cells and HUVECs. For binding assays, 10^6 mammalian cells were scanned on an AccuriA6 after co-incubation with 5×10^7 bacteria for 1 h at 4° C. followed by three washes in HFS (5% HSA, 2% FBS in PBS). The percentage of cells with green bacteria bound was calculated using FLOWJO Software.

[3] = mouse, in vivo, iv, 150 ug
Protocol: The Swiss Vaud Veterinary Office previously approved all animal procedures. While under anesthesia with ketamine/xylasine, the mouse tail was warmed in 42° C. water and 150 μg of protein was injected in a 100 μL volume directly into the tail vein. Care was taken to ensure mice were kept at 37° C. while under anesthesia. Blood was drawn by a small scalpel incision on the base of the tail, and diluted 10-fold in PBSA-5, 10 mM EDTA, and stored at −20° C. until further analysis. Blood samples were analyzed for MBP concentration by sandwich ELISA. In brief, monoclonal mouse anti-MBP was used as the capture antibody, polyclonal rabbit anti-MBP as the primary antibody, and goat anti-rabbit-HRP as the secondary antibody. The data were analyzed in PRISM4 using standard pharmacokinetic compartmental analysis, using Eq. 1 and Eq. 2 A=A0e^−Kt Equation 1: Standard one-compartment model
where A is the amount of free drug in the body at time t and A0 is the initial amount of drug at time zero. A=ae^−at+be^−βt Equation 2: Standard two-compartment model
where A is the amount of free drug in the central compartment at time t.

[4] = test system: human erythrocytes; test: Erythrocyte binding of APC-peptide conjugates by flow cytometry; settings: 1 μM APC-peptide conjugate, 37 C, 45 min
Protocol: Peptides were ordered and custom-synthesized via standard fmoc solid-phase peptide synthesis from PolyPeptide Group (Strasbourg, France). 10 equivalents of peptide dissolved in 3 M guanidine-HCl were added to 2 mg/mL maleimide-activated APC (InnovaBiosciences, Cambridge, UK) in PBS. Following a 4 h incubation at 4° C., the reaction was desalted on a 2 mL ZEBA Desalting Column (Thermo Scientific) and stored at 4° C.
Freshly isolated human blood was dissolved 100-fold into PBS supplemented with 20 mg/mL BSA. 5×10^5 erythrocytes were added to 150 μL of 1 μM APC-peptide conjugate and incubated at 37 C for 45 min. Cells were washed extensively in PBS+20 mg/mL BSA, and analyzed for APC fluorescence on a CyAn ADP Flow cytometer (Beckman Coulter).

[5] = test system: circulating erythrocytes; test: 8-arm PEG constructs binding to circulating erythrocytes after intravenous injection, flow cytometry; format: in vivo, mouse; settings: flow cytometry
Description: FIG. 17 presents experimental results depicting erythrocyte cell-surface half-life of 8-arm PEG-ERY1 (filled circles) and 8-arm PEG-MIS (empty boxes), determined by flow cytometry.

[6] = test system: mouse erythrocytes (glycophorin-A on the erythrocyte surface); test: Binding of OVA conjugates to erythrocytes in vitro, flow cytometry, equilibrium binding
Description: To obtain strong and specific biophysical binding of an antigen to erythrocytes, we used a synthetic 12 amino acid peptide (ERY1) that we discovered by phage display to specifically bind to mouse glycophorin-A (Kontos and Hubbell, 2010). In this investigation, the model antigen OVA was used with a transgenic mouse strain (OT-I) whose CD8^+ T cell population expresses the T cell receptor specific for the MHC I immunodominant OVA peptide SIINFEKL (SEQ ID NO:3). The ERY1 peptide was chemically conjugated to OVA to create an OVA variant (ERY1-OVA) that binds mouse erythrocytes with high affinity and specificity (FIG. 8a). High-resolution confocal microscopy confirmed earlier observations concerning ERY1 binding (Kontos and Hubbell, 2010), namely localization to the cell membrane equatorial periphery, with no intracellular translocation of the ERY1-conjugated protein.

[7] = test system: erythrocytes (CD45−); test: In vivo binding to circulating erythrocytes after intravenous administration; design: species or system mouse
Protocol: 150 μg of ERY1-OVA or OVA in 0.9% saline (B. Braun) in a volume of 100 μL was injected intravenously into the tail of 8-12 week old female C57BL/6 mice while under anesthesia with isoflurane. […] At predetermined time points, 5 μL of blood was taken from a small incision on the tail, diluted 100-fold into 10 mM EDTA in PBS, washed three times with PBS with 10 mg/mL BSA, and analyzed for OVA content by flow cytometry and ELISA. OVA was quantified by sandwich ELISA, using a mouse monoclonal anti-OVA antibody (Sigma) for capture, a polyclonal rabbit anti-OVA antibody (AbD SEROTEC) for detection, a goat anti-rabbit-IgG-HRP antibody (BioRad) for final detection, followed by TMB substrate (GE Life Sciences). Hematological characterization was performed on an ADVIVA 2120 Hematology System (Siemens). Erythrocyte-bound ERY1-GST was detected by incubating labeled cells with goat anti-GST (GE Healthcare Life Sciences), followed by incubation with AlexaFluor488 donkey anti-goat (Invitrogen), and analyzed by flow cytometry. For biodistribution studies, 20 μg of ERY1-APC or MIS-APC was injected intravenously into the tail vein of 8-12 week old female C57BL/6 mice as described above. Mice were sacrificed at predetermined time points, and the spleen, blood, and liver were removed. […]

Molecule: WMVLPWLPGTLD (not fully specified (C-terminus)) [ERY1, synthesized as H2N-…-CONH2]
- molecular target on the erythrocyte membrane / conjugation to erythrocyte proteins [1]: glycophorin-A (GYPA)

Molecule: GQSGQYICTSAGFGEYCFIDGSSGGS (Erythrocyte Binding Peptide) [ERY59]
- binding to human erythrocytes, specificity as compared to 293T cells and HUVECs [2]: bound specifically to human erythrocytes

Molecule: GQSGQPNSRWIYMTPLSPGIYRGSSGGS (Erythrocyte Binding Peptide) [ERY19]
- binding to human erythrocytes, specificity as compared to 293T cells and HUVECs [2]: bound specifically to human erythrocytes

Molecule: maltose binding protein [wild-type MBP]
- half-life [3]: 55.2 min
- α half life [3]: 24.6 min
- β half life [3]: 1.11 h

Molecule: GQSGQFCTVIYNTYTCVPSSGSSGGS (Erythrocyte Binding Peptide) [ERY141]
- binding to human erythrocytes, specificity as compared to 293T cells and HUVECs [2]: bound specifically to human erythrocytes
- binding to human erythrocytes as conjugates of APC [4]: bound to human erythrocytes

Molecule: GQSGQTYFCTPTLLGQYCSVGSSGGS (Erythrocyte Binding Peptide) [ERY64]
- binding to human erythrocytes, specificity as compared to 293T cells and HUVECs [2]: bound specifically to human erythrocytes
- binding to human erythrocytes as conjugates of APC [4]: bound to human erythrocytes

Molecule: GQSGHWHCQGPFANWVGSSGGS (Erythrocyte Binding Peptide) [ERY123]
- binding to human erythrocytes, specificity as compared to 293T cells and HUVECs [2]: bound specifically to human erythrocytes
- binding to human erythrocytes as conjugates of APC [4]: bound to human erythrocytes

Molecule: 8-arm PEG-MIS: 8-arm PEG conjugate harboring the non-specific MIS peptide (H-PLLTVGMDLWPWGGSGC(8‑arm PEG)RG-NH2; also: 8-arm PEG conjugate (multivalent), linkage to PEG not given here) [reference compound]
- binding to circulating erythrocytes upon intravenous injection [5]: not

Molecule: PLLTVGMDLWPW (Control peptide) [mismatch peptide, same amino acid residues as ERY1, scrambled, reference compound]
- molecular target on the erythrocyte membrane / conjugation to erythrocyte proteins [1]: failed to conjugate to any erythrocyte proteins

Molecule: GQSGQSVWYSSRGNPLRCTGGSSGGS (Erythrocyte Binding Peptide) [ERY162]
- binding to human erythrocytes, specificity as compared to 293T cells and HUVECs [2]: bound specifically to human erythrocytes

B1: OVA conjugated with only the crosslinking molecule: OVA carrying only the SMCC crosslinker (conjugate)
chain: GSIGAASMEFCFDVFKELKVHHANENIFYCPIAIMSALAMVYLGAKDSTRTQINKVVRFDKLPGFGDSIEAQCGTSVNVHSSLRDILNQITKPNDVYSFSLASRLYAEERYPILPEYLQCVKELYRGGLEPINFQTAADQARELINSWVESQTNGIIRNVLQPSSVDSQTAMVLVNAIVFKGLWEKAFKDEDTQAMPFRVTEQESKPVQMMYQIGLFRVASMASEKMKILELPFASGTMSMLVLLPDEVSGLEQLESIINFEKLTEWTSSNVMEERKIKVYLPRMKMEEKYNLTSVLMAMGITDVFSSSANLSGISSAESLKISQAVHAAHAEINEAGREVVGSAEAGVDAASVSEEFRADHPFLFCIKHIATNAVLFFGRCVSP
- binding to erythrocytes (flow cytometry) [6]: did not display any measureable affinity

B2: ovalbumin (protein)
chain: GSIGAASMEFCFDVFKELKVHHANENIFYCPIAIMSALAMVYLGAKDSTRTQINKVVRFDKLPGFGDSIEAQCGTSVNVHSSLRDILNQITKPNDVYSFSLASRLYAEERYPILPEYLQCVKELYRGGLEPINFQTAADQARELINSWVESQTNGIIRNVLQPSSVDSQTAMVLVNAIVFKGLWEKAFKDEDTQAMPFRVTEQESKPVQMMYQIGLFRVASMASEKMKILELPFASGTMSMLVLLPDEVSGLEQLESIINFEKLTEWTSSNVMEERKIKVYLPRMKMEEKYNLTSVLMAMGITDVFSSSANLSGISSAESLKISQAVHAAHAEINEAGREVVGSAEAGVDAASVSEEFRADHPFLFCIKHIATNAVLFFGRCVSP
notes: model antigen
- binding to circulating eryptotic (annexin-V+) and healthy (annexin-V−) erythrocytes [7]: nonbinding
